According to patent US20240166693A1, “METHODS AND COMPOUNDS FOR MODULATING MYOTONIC DYSTROPY 1” (Design Therapeutics, Inc., priority 2020, published 2024):
Where two headings read alike, the source gives them in different places.

Tested on: Myotonic Dystrophy 1 affected patient fibroblasts (Coriell GM04602; 1600 CTG repeats)
Test: DM1 foci reduction assay (CAG10-Cy3 FISH, average foci per nucleus)
Type: cell-based
Settings: Homo sapiens, Fibroblast
Method: DM1 foci reduction assay methods: Myotonic Dystrophy 1 affected patient fibroblasts (Coriell GM04602; 1600 CTG repeats) and wild type fibroblasts (Coriell GM07492; control line) were cultured separately in Gibco DMEM (1×)+4.5 g/L D-Glucose+L-Glutamine+110 mg/L Sodium Pyruvate, supplemented with 10% FBS and 1× Pen/Strep. Cells were maintained in incubator at 37° C. and 5% CO2 with media refresh every 48-72 hours.
At 90-95% confluency, both cell lines were harvested using Trypl-E then pelleted at 500×g for 5 minutes and were resuspended in media. DM1 fibroblasts were seeded in Agilent 96 well black plates at a density of 5,000 cells/well in 200 μL media; 8 wells were reserved for control fibroblasts. Plates were returned to incubator for 24 hours at 37° C. and 5% CO2.
Compounds were diluted from 10 mM stock to 1 mM in DMSO, then diluted once more to 6 μM (2× concentration) in media. Media was removed from all plates and cells were replenished with 100 μL media. Cells were treated in 8-point dose response, 1:3 fold dilution, 3 μM top dose via addition of 100 μL of 6 μM (2× concentration) compound to the 100 μL media with cells. Plates were returned to incubator for 48-hour time-course experiment at 37° C. and 5% CO2.
Following treatment, compounds were removed, and plates were washed with PBS, then cells were fixed in 75 μL 4% PFA solution for 20 minutes at room temperature. Plates were washed twice with PBS and twice with cold 70% ethanol before permeabilization with 250 μL cold 70% ethanol for 24-72 hours at −20° C.
After permeabilization, plates were washed once with a 30% formamide and 2×SSC buffer and rehydrated in that buffer for 15 minutes at room temperature. Cells were incubated overnight at 37° C. in 75 μL of a hybridization solution containing 30% formamide, 2×SSC, 25 mg/mL dextran sulfate, 2.5 mg/mL BSA, 0.2 μg/mL Herring sperm DNA, 2 mM vanadyl-ribonucleoside complex, and 5 nM CAG10-Cy3 probe.
Plates were washed once with 30% formamide in 2×SSC buffer, then twice with the buffer for 30 minutes at 37° C., 300 RPM in an incubating plate shaker. Cells were stained with 75 μL of 2.5 μg/mL DAPI in PBS for 5 minutes at room temperature. Plates were then washed twice with PBS and stored in 250 μL PBS. Plates were sealed with adhesive foil and wiped down with 70% ethanol.
Cells were imaged on a Cytation5 with a 20× objective sampling from 4 areas of each well. Nuclei were captured under DAPI channel and foci under RFP channel. Plates were analyzed on an average foci per nucleus per well basis.

[1] = 48 h, read-out: Foci Reduction in Fibroblast EC50, 48 h (nM)
[2] = DM1 fibroblasts, 48 h treatment, 8-point dose response, 3 μM top dose, read-out: Foci Reduction in Fibroblast EC50, 48 h

Compound	EC50 [1] [nM]	EC50 [2] [nM]
CCN(CC)CCCCC(NC(=O)[C@H](CC(C)C)NC(=O)C(C)NC(=O)[C@H](Cc1ccccc1)NC(=O)c1ccc(C(C)(C)C)cc1)C(=O)N[C@@H](CO)C(=O)NCCCN(C)CCCNC(=O)CCNC(=O)c1nc(NC(=O)c2cc(NC(=O)CCNC(=O)c3nc(NC(=O)CCCNC(=O)c4cc(NC(=O)c5nc(NC(=O)CCNC(=O)c6cc(NC(=O)c7nccn7C)cn6C)cn5C)cn4C)cn3C)cn2C)cn1C (stereo in doubt) [Compound 71]	> 500	–
Cn1cc(NC(=O)c2nc(NC(=O)CCNC(=O)c3cc(NC(=O)c4nc(NC(=O)CCNC(=O)c5cccn5C)cn4C)cn3C)cn2C)cc1C(=O)NCCC(=O)Nc1cn(C)c(C(=O)NCCOCCOCCOCCOCCOCCOCCOCCOCCOCCOCCN2CCC(C(=O)Nc3ncc(SCc4ncc(C(C)(C)C)o4)s3)CC2)n1 [Compound 2]	–	< 100
CCN(CC)CCCC[C@H](NC(=O)[C@H](CC(C)C)NC(=O)[C@H](C)NC(=O)[C@H](Cc1ccccc1)NC(=O)c1ccc(C(C)(C)C)cc1)C(=O)N[C@@H](CO)C(=O)NCCOCCOCCOCCOCCOCCNC(=O)c1nc(NC(=O)CCNC(=O)c2cc(NC(=O)c3nc(NC(=O)CCNC(=O)c4cc(NC(=O)c5nc(NC(=O)CCNC(=O)c6cccn6C)cn5C)cn4C)cn3C)cn2C)cn1C [Compound 10]	> 500	–
Cn1cc(NC(=O)c2nc(NC(=O)CCNC(=O)c3cc(NC(=O)c4nccn4C)cn3C)cn2C)cc1C(=O)NCCCC(=O)Nc1cn(C)c(C(=O)NCCC(=O)Nc2cc(C(=O)Nc3cn(C)c(C(=O)NCCC(=O)NCCOCCOCCOCCOCCOCCOCCOCCOCCOCCOCCN4CCC(C(=O)Nc5ncc(SCc6ncc(C(C)(C)C)o6)s5)CC4)n3)n(C)c2)n1 [Compound 17]	–	> 500
CCN(CC)CCCC[C@H](NC(=O)[C@H](CC(C)C)NC(=O)[C@H](C)NC(=O)[C@H](Cc1ccccc1)NC(=O)c1ccc(C(C)(C)C)cc1)C(=O)N[C@@H](CO)C(=O)NCCOCCOCCOCCOCCOCCNC(=O)CCNC(=O)c1nc(NC(=O)c2cc(NC(=O)CCNC(=O)c3nc(NC(=O)CCCNC(=O)c4cc(NC(=O)c5nc(NC(=O)CCNC(=O)c6cc(NC(=O)c7nccn7C)cn6C)cn5C)cn4C)cn3C)cn2C)cn1C [Compound 25]	100 to 500	–
CCN(CC)CCCC[C@H](NC(=O)[C@H](CC(C)C)NC(=O)[C@H](C)NC(=O)[C@H](Cc1ccccc1)NC(=O)c1ccc(C(C)(C)C)cc1)C(=O)N[C@@H](CO)C(=O)NCCOCCOCCOCCOCCOCCOCCOCCOCCOCCOCCNC(=O)CCNC(=O)c1nc(NC(=O)c2cc(NC(=O)CCNC(=O)c3nc(NC(=O)CCCNC(=O)c4cc(NC(=O)c5nc(NC(=O)CCNC(=O)c6cc(NC(=O)c7nccn7C)cn6C)cn5C)cn4C)cn3C)cn2C)cn1C [Compound 26]	100 to 500	–
CCN(CC)CCCC[C@H](NC(=O)[C@H](CC(C)C)NC(=O)[C@H](C)NC(=O)[C@H](Cc1ccccc1)NC(=O)c1ccc(C(C)(C)C)cc1)C(=O)N[C@@H](CO)C(=O)NCCOCCOCCOCCOCCOCCOCCOCCOCCOCCOCCOCCOCCOCCOCCOCCNC(=O)CCNC(=O)c1nc(NC(=O)c2cc(NC(=O)CCNC(=O)c3nc(NC(=O)CCCNC(=O)c4cc(NC(=O)c5nc(NC(=O)CCNC(=O)c6cc(NC(=O)c7nccn7C)cn6C)cn5C)cn4C)cn3C)cn2C)cn1C [Compound 27]	< 100	–
CC(C)c1cnn2c(NCc3ccc(OCCOCCOCCOCCOCCOCCOCCOCCOCCOCCOCCNC(=O)CCNC(=O)c4nc(NC(=O)c5cc(NC(=O)CCNC(=O)c6nc(NC(=O)CCCNC(=O)c7cc(NC(=O)c8nc(NC(=O)CCNC(=O)c9cc(NC(=O)c%10nccn%10C)cn9C)cn8C)cn7C)cn6C)cn5C)cn4C)cc3-n3cccn3)nc(OC3CCCNC3)nc12 (centres unmarked) [Compound 53]	–	> 500
CC(C)c1cnn2c(NCc3ccc(OCCOCCOCCOCCOCCOCCOCCOCCOCCOCCOCCOCCOCCOCCOCCOCCNC(=O)CCNC(=O)c4nc(NC(=O)c5cc(NC(=O)CCNC(=O)c6nc(NC(=O)CCCNC(=O)c7cc(NC(=O)c8nc(NC(=O)CCNC(=O)c9cc(NC(=O)c%10nccn%10C)cn9C)cn8C)cn7C)cn6C)cn5C)cn4C)cc3-n3cccn3)nc(OC3CCCNC3)nc12 (centres unmarked) [Compound 54]	–	> 500
CCN(CC)CCCC[C@H](NC(=O)[C@H](CC(C)C)NC(=O)[C@H](C)NC(=O)[C@H](Cc1ccccc1)NC(=O)c1ccc(C(C)(C)C)cc1)C(=O)N[C@@H](CO)C(=O)NCCOCCOCCOCCOCCOCCNC(=O)c1cc(NC(=O)c2cc(NC(=O)c3nc(NC(=O)c4cc(NC(=O)[C@@H](N)CCNC(=O)c5nc(NC(=O)c6cc(NC(=O)c7cc(NC(=O)c8nccn8C)cn7C)cn6C)cn5C)cn4C)cn3C)cn2C)cn1C [Compound 55]	> 500	–
CCN(CC)CCCC[C@H](NC(=O)[C@H](CC(C)C)NC(=O)[C@H](C)NC(=O)[C@H](Cc1ccccc1)NC(=O)c1ccc(C(C)(C)C)cc1)C(=O)N[C@@H](CO)C(=O)NCCOCCOCCOCCOCCOCCNC(=O)c1cc(NC(=O)c2cc(NC(=O)c3nc(NC(=O)c4cc(NC(=O)[C@@H](N)CCNC(=O)c5nc(NC(=O)CCNC(=O)c6cc(NC(=O)c7nccn7C)cn6C)cn5C)cn4C)cn3C)cn2C)cn1C [Compound 56]	> 500	–
CCN(CC)CCCC[C@H](NC(=O)[C@H](CC(C)C)NC(=O)[C@H](C)NC(=O)[C@H](Cc1ccccc1)NC(=O)c1ccc(C(C)(C)C)cc1)C(=O)N[C@@H](CO)C(=O)NCCOCCOCCOCCOCCOCCNC(=O)c1cc(NC(=O)c2nc(NC(=O)c3cc(NC(=O)[C@@H](N)CCNC(=O)c4nc(NC(=O)c5cc(NC(=O)c6cc(NC(=O)c7nccn7C)cn6C)cn5C)cn4C)cn3C)cn2C)cn1C [Compound 57]	> 500	–
CC(C)C[C@H](NC(=O)[C@H](C)NC(=O)[C@H](Cc1ccccc1)NC(=O)c1ccc(C(C)(C)C)cc1)C(=O)N[C@@H](CCCCN(C)C1CC2CCC1C2)C(=O)N[C@@H](CO)C(=O)NCCOCCOCCOCCOCCOCCNC(=O)c1cc(NC(=O)c2cc(NC(=O)c3nc(NC(=O)c4cc(NC(=O)[C@@H](N)CCNC(=O)c5nc(NC(=O)c6cc(NC(=O)c7cc(NC(=O)c8nccn8C)cn7C)cn6C)cn5C)cn4C)cn3C)cn2C)cn1C (some centres unmarked) [Compound 58]	> 500	–
CC(C)C[C@H](NC(=O)[C@H](C)NC(=O)[C@H](Cc1ccccc1)NC(=O)c1ccc(C(C)(C)C)cc1)C(=O)N[C@@H](CCCCN(C)C1CC2CCC1C2)C(=O)N[C@@H](CO)C(=O)NCCOCCOCCOCCOCCOCCNC(=O)CCNC(=O)c1nc(NC(=O)c2cc(NC(=O)CCNC(=O)c3nc(NC(=O)CCCNC(=O)c4cc(NC(=O)c5nc(NC(=O)CCNC(=O)c6cc(NC(=O)c7nccn7C)cn6C)cn5C)cn4C)cn3C)cn2C)cn1C (some centres unmarked) [Compound 59]	100 to 500	–
Cn1cc(NC(=O)c2nc(NC(=O)CCNC(=O)c3cc(NC(=O)c4nccn4C)cn3C)cn2C)cc1C(=O)NCCCC(=O)Nc1cn(C)c(C(=O)NCCC(=O)Nc2cc(C(=O)Nc3cn(C)c(C(=O)NCCC(=O)NCCOCCOCCOCCOCCOCCNC(=O)c4ccc(-c5cnc(NCc6ccco6)n6cnnc56)cc4)n3)n(C)c2)n1 [Compound 60]	–	100 to 500
Cc1nc(CCC(=O)NCCOCCOCCOCCOCCOCCNC(=O)CCNC(=O)c2nc(NC(=O)c3cc(NC(=O)CCNC(=O)c4nc(NC(=O)CCCNC(=O)c5cc(NC(=O)c6nc(NC(=O)CCNC(=O)c7cc(NC(=O)c8nccn8C)cn7C)cn6C)cn5C)cn4C)cn3C)cn2C)ccc1-c1cnc(NCc2c(F)ccc3c2CCO3)n2cnnc12 [Compound 62]	–	> 500
Cc1nc(CCC(=O)NCCOCCOCCOCCOCCOCCOCCOCCOCCOCCOCCOCCOCCOCCOCCOCCNC(=O)CCNC(=O)c2nc(NC(=O)c3cc(NC(=O)CCNC(=O)c4nc(NC(=O)CCCNC(=O)c5cc(NC(=O)c6nc(NC(=O)CCNC(=O)c7cc(NC(=O)c8nccn8C)cn7C)cn6C)cn5C)cn4C)cn3C)cn2C)ccc1-c1cnc(NCc2c(F)ccc3c2CCO3)n2cnnc12 [Compound 63]	–	> 500
